Molecules are shown by their SMILES. In brackets after ≈: the same amount, converted by molar mass.

This note sets out measurements from ChEMBL document CHEMBL5331122, “Structure-Activity Relationship Study of Antimicrobial Peptide PE2 Delivered Novel Linear Derivatives with Potential of Eradicating Biofilms and Low Incidence of Drug Resistance” (J Med Chem, 2023).

For data set [1], the system named is Enterococcus faecalis. In words: Antibacterial activity against Enterococcus faecalis ATCC 29212 assessed as bacterial growth inhibition incubated for 18 hrs by broth microdilution method. Format: functional.
Data set [2] deals with Escherichia coli. In words: Antibacterial activity against Escherichia coli ATCC 25922 assessed as bacterial growth inhibition incubated for 18 hrs by broth microdilution method. In kind it is functional. (In general: Dilution methods test growth across graded concentrations, often in twofold steps.)
Data set [3] relates to Bacillus subtilis. Nature of the data set: Antibacterial activity against Bacillus subtilis ATCC 23857 assessed as bacterial growth inhibition incubated for 18 hrs by broth microdilution method. In kind it is functional.
The test system of data set [4] is Staphylococcus aureus. Nature of the data set: Antibacterial activity against Staphylococcus aureus ATCC 25923 assessed as bacterial growth inhibition incubated for 18 hrs by broth microdilution method. In kind it is functional.
Data set [5] relates to Klebsiella pneumoniae. In words: Antibacterial activity against Klebsiella pneumoniae ATCC 700603 assessed as bacterial growth inhibition incubated for 18 hrs by broth microdilution method. In kind it is functional.
For data set [6], the system named is Erythrocyte. In words: Hemolytic activity in mouse red blood cell assessed as hemolysis incubated for 1 hr. The note with it: dose 4-256 µg/ml. In kind it is toxicity, cell-based.
For data set [7], the system named is Pseudomonas aeruginosa. Nature of the data set: Antibacterial activity against Pseudomonas aeruginosa ATCC 27853 assessed as bacterial growth inhibition incubated for 18 hrs by broth microdilution method. Format: functional.

Regarding `CCCCCCC(=O)N[C@@H](CCN)C(=O)N[C@H](C(=O)N[C@@H](CCN)C(=O)N[C@H](Cc1ccccc1)C(=O)N[C@@H](CC(C)C)C(=O)N[C@@H](CCN)C(=O)N[C@@H](C(=O)N[C@@H](CC(C)C)C(=O)N[C@H](C(N)=O)[C@@H](C)O)C(C)C)[C@@H](C)CC`, the MIC in data set [1] turned out to be 64 µg/mL (≈ 57.3 µM); in data set [2], 4 µg/mL (≈ 3.58 µM); in data set [3], 4 µg/mL (≈ 3.58 µM); in data set [4] it was 16 µg/mL (≈ 14.3 µM); in data set [5], 8 µg/mL (≈ 7.17 µM); in data set [7], 16 µg/mL (≈ 14.3 µM). For the same compound, the HC10 in data set [6] turned out to be 256 µg/mL.
Take `CCCCCCCCCC(=O)N[C@@H](CCN)C(=O)N[C@H](C(=O)N[C@@H](CCN)C(=O)N[C@H](Cc1ccccc1)C(=O)N[C@@H](CC(C)C)C(=O)N[C@@H](CCN)C(=O)N[C@@H](C(=O)N[C@@H](CC(C)C)C(=O)N[C@H](C(N)=O)[C@@H](C)O)C(C)C)[C@@H](C)CC`: the minimal inhibitory concentration (MIC) worked out at 8 µg/mL (≈ 6.91 µM) in data set [1]; 4 µg/mL (≈ 3.45 µM) in data set [2]; 4 µg/mL (≈ 3.45 µM) in data set [3]; 4 µg/mL (≈ 3.45 µM) in data set [4]; 4 µg/mL (≈ 3.45 µM) in data set [5]; 4 µg/mL (≈ 3.45 µM) in data set [7]. For the same compound, the HC10 in data set [6] was 32 µg/mL.
In the case of `CN[C@H](CC(C)C)C(=O)N[C@H]1C(=O)N[C@@H](CC(N)=O)C(=O)N[C@H]2C(=O)N[C@H]3C(=O)N[C@H](C(=O)N[C@H](C(=O)O)c4cc(O)cc(O)c4-c4cc3ccc4O)[C@H](O)c3ccc(c(Cl)c3)Oc3cc2cc(c3O[C@@H]2O[C@H](CO)[C@@H](O)[C@H](O)[C@H]2O[C@H]2C[C@](C)(N)[C@H](O)[C@H](C)O2)Oc2ccc(cc2Cl)[C@H]1O` [VANCOMYCIN], the minimal inhibitory concentration (MIC) is 128 µg/mL (≈ 88.3 µM) in data set [2], less than 1 µg/mL in data set [3], more than 128 µg/mL in data set [5] and more than 128 µg/mL in data set [7].
As to `CCCCCCCCC(=O)N[C@@H](CCN)C(=O)N[C@H](C(=O)N[C@@H](CCN)C(=O)N[C@H](Cc1ccccc1)C(=O)N[C@@H](CC(C)C)C(=O)N[C@@H](CCN)C(=O)N[C@@H](C(=O)N[C@@H](CC(C)C)C(=O)N[C@H](C(N)=O)[C@@H](C)O)C(C)C)[C@@H](C)CC`, the MIC in data set [1] came out at 8 µg/mL (≈ 6.99 µM); in data set [2], 4 µg/mL (≈ 3.49 µM); in data set [3], 4 µg/mL (≈ 3.49 µM); in data set [4] it was 8 µg/mL (≈ 6.99 µM); in data set [5] it was 8 µg/mL (≈ 6.99 µM); in data set [7], 8 µg/mL (≈ 6.99 µM). For the same compound, the HC10 in data set [6] worked out at 64 µg/mL.
For the compound `CCCCCCCCCCC(=O)N[C@@H](CCN)C(=O)N[C@H](C(=O)N[C@@H](CCN)C(=O)N[C@H](Cc1ccccc1)C(=O)N[C@@H](CC(C)C)C(=O)N[C@@H](CCN)C(=O)N[C@@H](C(=O)N[C@@H](CC(C)C)C(=O)N[C@H](C(N)=O)[C@@H](C)O)C(C)C)[C@@H](C)CC`, the minimum inhibitory concentration (MIC) in data set [1] stood at 8 µg/mL (≈ 6.82 µM); in data set [2], 4 µg/mL (≈ 3.41 µM); in data set [3] it was 2 µg/mL (≈ 1.71 µM); in data set [4] it was 2 µg/mL (≈ 1.71 µM); in data set [5], 2 µg/mL (≈ 1.71 µM); in data set [7], 2 µg/mL (≈ 1.71 µM). Further, the HC10 in data set [6] stood at 16 µg/mL.
Take `C/C=C(/NC(=O)[C@H](CC(C)C)NC(=O)[C@H](NC(=O)[C@H](CCN)NC(=O)[C@H](CC(C)C)NC(=O)[C@@H](Cc1ccccc1)NC(=O)[C@H](CCN)NC(=O)[C@@H](NC(=O)[C@H](CCN)NC(=O)C[C@@H](O)CCC)[C@@H](C)CC)C(C)C)C(=O)O`: the MIC was more than 128 µg/mL in data set [1]; 64 µg/mL (≈ 58.1 µM) in data set [2]; 32 µg/mL (≈ 29.1 µM) in data set [3]; more than 128 µg/mL in data set [4]; 128 µg/mL (≈ 116 µM) in data set [5]; 32 µg/mL (≈ 29.1 µM) in data set [7]. Moreover, in data set [6], the HC10 stood at 512 µg/mL.
On to `NC[C@H]1O[C@H](O[C@H]2[C@H](O)[C@@H](O[C@H]3O[C@H](CO)[C@@H](O)[C@H](N)[C@H]3O)[C@H](N)C[C@@H]2N)[C@H](O)[C@@H](O)[C@@H]1O` [KANAMYCIN], for which the minimum inhibitory concentration (MIC) is 16 µg/mL (≈ 33 µM) in data set [1]; 4 µg/mL (≈ 8.26 µM) in data set [2]; less than 1 µg/mL in data set [3]; less than 1 µg/mL in data set [4]; 32 µg/mL (≈ 66 µM) in data set [5]; more than 128 µg/mL in data set [7].
Regarding `CCCCCCCCCCCC(=O)N[C@@H](CCN)C(=O)N[C@H](C(=O)N[C@@H](CCN)C(=O)N[C@H](Cc1ccccc1)C(=O)N[C@@H](CC(C)C)C(=O)N[C@@H](CCN)C(=O)N[C@@H](C(=O)N[C@@H](CC(C)C)C(=O)N[C@H](C(N)=O)[C@@H](C)O)C(C)C)[C@@H](C)CC`, the minimum inhibitory concentration (MIC) in data set [1] worked out at 4 µg/mL (≈ 3.37 µM); in data set [2], 4 µg/mL (≈ 3.37 µM); in data set [3], 8 µg/mL (≈ 6.74 µM); in data set [4] it was 16 µg/mL (≈ 13.5 µM); in data set [5], 8 µg/mL (≈ 6.74 µM); in data set [7], 8 µg/mL (≈ 6.74 µM). The HC10 in data set [6] was found to be 8 µg/mL.

What is called MIC is the lowest concentration found to suppress growth.
